According to patent US7786042B2, “Fluridone as an anti-inflammatory agent” (Universita' Degli Studi Di Genova, priority 2005, dated 2010):

What was measured:
Type in all cases: cell-based
human granulocytes [1] = assay: Intracellular calcium [Ca2+]i in granulocytes
Experimental: Granlocytes were isolated by density gradient centrifugation from the peripheral blood of healthy donors, after informed consent. Contaminating erythrocytes were removed by hypotonic lysis. […] The increase of [cADPR]i in turn induces a progressive rise of [Ca^2+]i, from a basal value of 50±2 nM to 170±25 nM after 10 min from the addition of 10 μM ABA (n=4). […] The increase of the [Ca^2+]i induced by ABA in granulocytes is in turn responsible for activation of several functional activities typical of these cells. The functional effects induced by ABA (at concentrations ranging between 0.2 and 20 μM) in granulocytes include stimulation of the production of reactive oxygen species (ROS), measured through the cytochrome c […] (FIG. 2A), and of nitric oxide (NO), measured as accumulation of nitrite, the end-product of NO […] (FIG. 2B).

human granulocytes [2] = assay: NO release by granulocytes (nitrite, Griess)
Experimental: Granulocytes were resuspended at 5×10^6/ml in HBSS and 225 μl of the cell suspension were added to 50 μl of 0.2 mM cytochrome c and were incubated for 30 min at 37° C. in the absence (control) or in the presence of 250 nM or 20 μM ABA, the latter concentration without or with 1 mM EDTA, 20 mM nicotinamide or 0.1 mM 8-Br-cADPR. […] The results are expressed as the production relative to control cells, not stimulated with ABA, and are the mean ±SD from 5 experiments.
The method used to determine NO released from the cells into the medium exploits the spontaneous conversion of NO to nitrates and the subsequent enzymatic reduction of nitrates to nitrites by the enzyme nitrate reductase. […] Granulocytes (60×10^6/well) or murine microglia cells N9 (2×10^5/well) were incubated in 24-well plates for 60 min at 37° C. in the presence of ABA at different concentrations. The supernatants were then centrifuged and diluted with an equal volume of Griess reagent (0.1% naphthyl-ethylenediamine dihydrochloride in distilled water, 1% sulphanylamide in 5% concentrated H3PO4). Absorbance at 545 nm was estimated after 10 min and the nitrite concentration was calculated using a standard curve, generated in parallel with known amounts of NaNO2.

human granulocytes [3] = assay: ROS production by granulocytes (cytochrome c assay)
Experimental: Granulocytes were resuspended at 5×10^6/ml in HBSS and 225 μl of the cell suspension were added to 50 μl of 0.2 mM cytochrome c and were incubated for 30 min at 37° C. in the absence (control) or in the presence of 250 nM or 20 μM ABA, the latter concentration without or with 1 mM EDTA, 20 mM nicotinamide or 0.1 mM 8-Br-cADPR. The amount of ROS (panel A) or of NO (panel B) in the cell supernatant was measured as described in Materials and Methods. The results are expressed as the production relative to control cells, not stimulated with ABA, and are the mean ±SD from 5 experiments.
Release of superoxide (O2^−) by human granulocytes was quantified by a spectrophotometric assay of cytochrome c reduction (Cohen, J Clin Invest 1978). Granulocytes were resuspended in HBSS (at 5×10^6 cells/ml) and 225 μl of the cell suspension was incubated for 30 min at 37° C. with 50 μl cytochrome c (0.2 mM) in the absence (control) or in the presence of ABA at different concentrations. Then, cells were centrifuged at 5,000×g for 15 s and the absorbance of the supernatants was recorded at 550 nm (λmax for reduced cytocrome c).

human granulocytes [4] = assay: Chemotaxis and chemokinesis of granulocytes
Experimental: Assays were performed using 96-well ChemoTx system microplates with a 3-μm pore size polycarbonate filter (NeuroProbe Inc., Gaithersburg, USA). Cells (granulocytes or murine microglia) were resuspended at 10^7/ml in HBSS, PBS and 5% albumin, 39:16:1 (chemotaxis buffer, CB). In order to evaluate the chemoattractant effect of ABA, hormone concentrations ranging from 50 nM to 20 μM were added in CB in the bottom wells and 25 μl cell suspensions were placed on top of the filter. To evaluate a possible stimulatory effect of ABA on spontaneous cell movements (chemokinesis), cells were pre-incubated with or without 20 μM ABA, then washed and placed on top of the filter, in contact with CB. Plates were incubated at 37° C. for 60 min and transmigrated cells were recovered and quantified by fluorimetric assay with Cytox Green. The number of transmigrated cells was calculated by comparison of the measured fluorescence with that of a standard curve, obtained by directly placing a serial dilution of cells in the bottom wells. The results of the chemotaxis experiments are expressed as “chemotaxis index” (CI): CI=number of cells migrated towards chemoattractant/number of cells migrated towards CB

SMILES | inhibition of the ABA-induced increase of [Ca2+]i (human granulocytes [1]) | effect on ABA-induced NO production (human granulocytes [2]) | effect on ABA-induced ROS production (human granulocytes [3]) | effect on ABA-induced chemokinesis and chemotaxis (human granulocytes [4]) | effect on the ABA-induced increase of [Ca2+]i (human granulocytes [1])
N=c1c2nc(Br)n3c2ncn1C1OC(COP(=O)(O)OP(=O)(O)OCC2OC3C(O)C2O)C(O)C1O (stereo not shown) [8-Br-cADPR, reference compound] | approx. 60% | inhibited | inhibited | inhibited | –
O=C(O)CN(CCN(CC(=O)O)CC(=O)O)CC(=O)O [EDTA, reference compound] | – | inhibited | inhibited | – | –
O=C(O)CN(CCOCCOCCN(CC(=O)O)CC(=O)O)CC(=O)O [EGTA] | – | – | – | – | almost completely prevents
NC(=O)c1cccnc1 [nicotinamide, reference compound] | – | inhibited | inhibited | inhibited | –
